We go through 49 sequences from the OligoGym collection.

Several values for one entry are separate records, joined by “and”; a condition that tells them apart may be missing. Equal values may be shown once. After the bases stand the sugars from the 5' end (letter, count) and the backbone: PS all phosphorothioate, else s phosphorothioate and o phosphodiester by linkage. Methylation of C is not given here. e = 2'-O-(2-methoxyethyl) (MOE); k = constrained ethyl (cEt); d = 2'-deoxy (DNA)

The series has as its target SOD1. Conditions: ASO.

With “CAGAATCTTCAATAGACACA (sugars e5 d10 e5, PS)”, the target mRNA inhibition (HepG2, 5 µM) is 17% and 0%.
The same measure, in the same setting: the figure for “GCGGCCAATGATGCAATGGT (sugars e5 d10 e5, PS)” is 13%.
“GCTTCCCCACACCTTCACTG (sugars e5 d10 e5, PS)” showed a target mRNA inhibition (HepG2, 3 µM) of 50%.
Consider “TGTTTAATGTTTATCA (sugars kekeddddddddekek, linkages s1 o3 s8 o1 s2)”, for which the target mRNA inhibition runs as follows: (A431, 0.12 µM) 6%; (A431, 0.6 µM) 14%; (A431, 3 µM) 15%; (A431, 15 µM) 32%; (HepG2, 0.222 µM) 42%; (HepG2, 0.667 µM) 54%. The target mRNA inhibition came out at 69% (HepG2, 2 µM) and 86% (HepG2, 6 µM).
In turn, “CTGACAAGTTTAATACC (sugars e3 k2 d7 k2 e3, PS)” displayed a target mRNA inhibition (HepG2, 3 µM) of 10%.
Still for that read-out and setting: the figure for “AAAATACAGGTCATTGA (sugars e3 k2 d7 k2 e3, PS)” is 28%.
Sequence “TCATAATAAGTGCCATA (sugars e2 k2 d8 k2 e3, PS)” showed a target mRNA inhibition (HepG2, 5 µM) of 28%.
“AGGATAACAGATGAGTT (sugars e3 k2 d7 k2 e3, PS)” returned a target mRNA inhibition (HepG2, 3 µM) of 45%.
Where the note is “HepG2, 4 µM”, “CGCCCTTCAGCACGCAC (sugars e2 k2 d8 k2 e3, PS)” displayed a target mRNA inhibition of 67%.
For the setting “HepG2, 3 µM”, “TCTTCATTTCCACCTTT (sugars e3 k2 d7 k2 e3, PS)” came in with a target mRNA inhibition of 31%.
Sequence “AATCTTCCAAGTGATCA (sugars e2 k2 d8 k2 e3, PS)” had a target mRNA inhibition (HepG2, 5 µM) of 19%.
“GTGTTTAATGTTTATC (sugars ekddddddddekekee, linkages s1 o1 s8 o3 s2)”: the target mRNA inhibition runs as follows: (A431, 0.12 µM) 10%; (A431, 0.6 µM) 32%; (A431, 3 µM) 66%; (A431, 15 µM) 79%; (HepG2, 0.222 µM) 40%; (HepG2, 0.667 µM) 63%. Further, the target mRNA inhibition by setting is: (HepG2, 2 µM) 76%; (HepG2, 6 µM) 86%.
On to “CGCCCTTCAGCACGCAC (sugars e2 k2 d9 k2 e2, PS)”, for which the target mRNA inhibition is 12% (HepG2, 0.1875 µM); 47% (HepG2, 0.75 µM); 79% (HepG2, 3 µM); 73% (HepG2, 4 µM); 94% (HepG2, 12 µM).
In the case of “CTGGTTCCGAGGACTGCAAC (sugars e5 d10 e5, PS)”, the target mRNA inhibition (HepG2, 4 µM) was determined as 51%.
“CAAAATACAGGTCATTG (sugars e2 k2 d9 k2 e2, PS)” showed a target mRNA inhibition (HepG2, 5 µM) of 56%.
The same measure, in the same setting: the figure for “TAATACCCATCTGTGAT (sugars e2 k2 d9 k2 e2, PS)” is 28%.
Sequence “AGGAGACTACGACGCAAACC (sugars e5 d10 e5, PS)” had a target mRNA inhibition (HepG2, 4 µM) of 35%.
Take “AATGCTTCCCCACACCT (sugars e3 k2 d7 k2 e3, PS)”: the target mRNA inhibition (HepG2, 3 µM) stood at 35%.
On the same count and under the same terms, the figure for “CAGGTCATTGAAACAGA (sugars e3 k2 d7 k2 e3, PS)” is 14%; for “CCTTTGGCCCACCGTGT (sugars e3 k2 d7 k2 e3, PS)” it is 46%.
As for “CCACACCATCTTTGTCAGCA (sugars e5 d10 e5, PS)”, under “HepG2, 5 µM”, the target mRNA inhibition is 39% and 20%.
Take “ACTATACAAATCTTCCA (sugars e3 k2 d7 k2 e3, PS)”: the target mRNA inhibition (HepG2, 3 µM) came to 10%.
Regarding “TGTGATTTAAGTCTGGC (sugars e2 k2 d9 k2 e2, PS)”, the target mRNA inhibition (HepG2, 5 µM) was found to be 58%.
On to “GGGCCTCAGACTACATC (sugars e2 k2 d8 k2 e3, PS)”, for which the target mRNA inhibition (HepG2, 4 µM) came out at 55%.
On to “AATAGCCTCATAATAAG (sugars e2 k2 d9 k2 e2, PS)”, for which the target mRNA inhibition (HepG2, 5 µM) was 25%.
In turn, “GTTTAATACCCATCTGT (sugars e3 k2 d7 k2 e3, PS)” came in with a target mRNA inhibition (HepG2, 3 µM) of 17%.
Regarding “GATAACAGATGAGTTAA (sugars e2 k2 d8 k2 e3, PS)”, where the note is “HepG2, 4 µM”, the target mRNA inhibition turned out to be 41%.
Take “GGATTAAAGTGAGGACC (sugars e3 k2 d7 k2 e3, PS)”: the target mRNA inhibition (HepG2, 3 µM) stood at 30%.
For “AAGTGATCATAAATCAGTTT (sugars e5 d10 e5, PS)”, the target mRNA inhibition turned out to be 86% (HepG2, 4 µM); 8% (HepG2, 5 µM); 96% (HepG2, 12 µM).
With “AGTTTAATACCCATCTG (sugars e2 k2 d9 k2 e2, PS)”, the target mRNA inhibition (HepG2, 5 µM) amounted to 43%.
Regarding “CCGTCGCCCTTCAGCAC (sugars e3 k2 d7 k2 e3, PS)”, under “HepG2, 3 µM”, the target mRNA inhibition came out at 27%.
As to “TCCAAGTGATCATAAAT (sugars e2 k2 d8 k2 e3, PS)”, under “HepG2, 5 µM”, the target mRNA inhibition came to 42%.
Same read-out and setting: next, “ACCCATCTGTGATTTAA (sugars e2 k2 d8 k2 e3, PS)”: 33%.
The sequence “TCACTACAGGTACTTTA (sugars e2 k2 d8 k2 e3, PS)” displayed a target mRNA inhibition (HepG2, 5 µM) of 27%.
The same measure, in the same setting: the figure for “CAGTTTCTCACTACAGG (sugars e2 k2 d9 k2 e2, PS)” is 38%.
In turn, “GTTTTTATTCACAGGCT (sugars e3 k2 d7 k2 e3, PS)” had a target mRNA inhibition (HepG2, 3 µM) of 10%.
Sequence “AGGTACTTTAAAGCAAC (sugars e2 k2 d9 k2 e2, PS)” came in with a target mRNA inhibition (HepG2, 5 µM) of 42%.
“ATGTTTATCAGGATAC (sugars ekddddddddekekee, linkages s1 o1 s8 o3 s2)”: the target mRNA inhibition turned out to be 0% (A431, 0.12 µM); 7% (A431, 0.6 µM); 26% (A431, 3 µM); 59% (A431, 15 µM); 64% (HepG2, 0.222 µM); 81% (HepG2, 0.667 µM). Also, the target mRNA inhibition reads like this: (HepG2, 2 µM) 90%; (HepG2, 6 µM) 94%.
“CCACACCTTCACTGGTCCAT (sugars e5 d10 e5, PS)” showed a target mRNA inhibition (HepG2, 2 µM) of 50%.
As for “TGTTTATCAGGATACATTTC (sugars e5 d10 e5, PS)”, under “HepG2, 5 µM”, the target mRNA inhibition was found to be 52%.
“TTATTCACAGGCTTGAA (sugars e2 k2 d8 k2 e3, PS)”: the target mRNA inhibition (HepG2, 5 µM) amounted to 26%.
With “CTCAGACTACATCCAAG (sugars e2 k2 d8 k2 e3, PS)”, the target mRNA inhibition (HepG2, 0.1875 µM) was found to be 38%; the target mRNA inhibition (HepG2, 0.75 µM) was determined as 65%; the target mRNA inhibition (HepG2, 3 µM) is 87%; the target mRNA inhibition (HepG2, 4 µM) was 85% and 83%; the target mRNA inhibition (HepG2, 12 µM) is 90% and 96%.
As for “CATTTCTACAGCTAGC (sugars ekddddddddekekee, linkages s1 o1 s8 o3 s2)”, the target mRNA inhibition (A431, 0.12 µM) is 3%; the target mRNA inhibition (A431, 0.6 µM) came out at 3%; the target mRNA inhibition (A431, 3 µM) came to 2%; the target mRNA inhibition (A431, 15 µM) is 11%.
Take “CAATTACACCACAAGCC (sugars e2 k2 d9 k2 e2, PS)”: the target mRNA inhibition (HepG2, 4 µM) is 61%.
Regarding “ACAGGCTTGAATGACAAAGA (sugars e5 d10 e5, PS)”, the target mRNA inhibition (HepG2, 5 µM) stood at 19%.
The same measure, in the same setting: next, “TTAATGTTTATCAGGATACA (sugars e5 d10 e5, PS)”: 34%.
For the sequence “GCGACTACTTTATAGGC (sugars e3 k2 d7 k2 e3, PS)”, the target mRNA inhibition (HepG2, 3 µM) was found to be 12%.
For the sequence “ATGTTTATCAGGATACA (sugars e2 k2 d9 k2 e2, PS)”, the target mRNA inhibition is, setting by setting: (HepG2, 0.1875 µM) 27%; (HepG2, 0.75 µM) 65%; (HepG2, 3 µM) 88%; (HepG2, 4 µM) 81%; (HepG2, 12 µM) 96%.
“AGACACATCGGCCACAC (sugars e3 k2 d7 k2 e3, PS)” displayed a target mRNA inhibition (HepG2, 3 µM) of 21%.
